Among the data in article PMC11048244, “Development of Improved Spectrophotometric Assays for Biocatalytic Silyl Ether Hydrolysis” (Biomolecules, 2024) are Km values, retold here.

The Km is the concentration of substrate that gives half-maximal velocity.

Molecules are shown by their SMILES.

In the experiment the test system is T1, TF-Silα-Strep (silicatein-α, Silα).
T1 construct: trigger factor fused at N-terminus, Strep-tag II at C-terminus; recombinant, StrepTrap purified
As to the kind of experiment: UV-VIS spectrophotometric silyl ether hydrolysis, net initial rates. The format is biochemical. The settings on record: 10% v/v 1,4-dioxane, 50 mM Tris, 100 mM NaCl, pH 8.5. From the text: UV-VIS spectrophotometric silyl ether hydrolysis, net initial rates on TF-Silα-Strep (silicatein-α, Silα)
With `CC(C)(C)[Si](C)(C)Oc1ccc([N+](=O)[O-])cc1` [compound 1, tert-butyldimethyl(4-nitrophenoxy)silane], the Km came to 44.4 ± 11.9 µM.

With `CC(C)C(C)(C)[Si](C)(C)Oc1ccc([N+](=O)[O-])cc1` [compound 2, 2], the Km worked out at 24.1 ± 5 µM.

Take `CC(C)[Si](Oc1ccc([N+](=O)[O-])cc1)(C(C)C)C(C)C` [compound 3, 3]: the Km is 20.4 ± 8.13 µM.

As for `Cc1cc([N+](=O)[O-])ccc1O[Si](C)(C)C(C)(C)C` [compound 4, tert-Butyldimethyl(2-methyl-4-nitrophenoxy)silane], the Km was found to be 72.5 ± 15.3 µM.

For the molecule `Cc1cc(O[Si](C)(C)C(C)(C)C)ccc1[N+](=O)[O-]` [compound 5, tert-Butyldimethyl(3-methyl-4-nitrophenoxy)silane], the Km stood at 34.6 ± 4.11 µM.
